# Measurements published in PubChem BioAssay (NCI).
# Values joined by “and” are separate entries in the source; they are usually repeats but may differ in a detail not shown here. Equal values may be shown once.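 Step 1: Grow cells in 96-well plates. Step 2: Expose to compound for 48 hours at 5 concentrations. Step 3: Interpolate endpoints linearly; if unreached, use highest concentration. GI50: concentration for 50% inhibition of growth. TGI: total growth inhibition.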 Non-standard residues stand in square brackets, D forms with d. Residues, ends and D or L forms follow the SMILES beside them. *: point of attachment. ONb = O=[N+]([O-])c1ccc(CO*)cc1; AllylGly = C=CC[CH](N)C(=O)O; Boc = CC(C)(C)OC(=O)*
# How the values were obtained:
# Test in all cases: DTP human tumour cell line panel, 48 h
# 786-0 renal = tested on: 786-0 renal
# HL-60(TB) leukemia = tested on: HL-60(TB) leukemia
# OVCAR-8 ovarian = tested on: OVCAR-8 ovarian
# RXF 393 renal = tested on: RXF 393 renal
# SF-295 CNS = tested on: SF-295 CNS
# SK-MEL-28 melanoma = tested on: SK-MEL-28 melanoma
# UACC-257 melanoma = tested on: UACC-257 melanoma
# HS 578T breast = tested on: HS 578T breast
# MDA-MB-435 = tested on: MDA-MB-435
# MDA-MB-231 breast = tested on: MDA-MB-231 breast
SMILES,TGI (786-0 renal),TGI (HL-60(TB) leukemia) [µM],TGI (OVCAR-8 ovarian),TGI (RXF 393 renal),TGI (SF-295 CNS),TGI (SK-MEL-28 melanoma),TGI (UACC-257 melanoma),GI50 (786-0 renal),GI50 (HL-60(TB) leukemia),GI50 (HS 578T breast),TGI (HS 578T breast),GI50 (MDA-MB-435) [µM],TGI (MDA-MB-435) [µM],GI50 (OVCAR-8 ovarian),GI50 (RXF 393 renal) [µM],GI50 (SF-295 CNS),GI50 (SK-MEL-28 melanoma),TGI (MDA-MB-231 breast) [µM],GI50 (MDA-MB-231 breast),GI50 (UACC-257 melanoma)
CC1=C(C(=O)Nc2ccccc2C)C(c2ccccc2)C(C(=O)Nc2ccccc2C)=C(C)N1,> 100 µM,43.3,> 100 µM,71.6 µM,> 100 µM,> 100 µM,> 100 µM,,,,,,,,,,,,,
O=C(c1ccccc1)C(c1ccccc1)C1(O)C(=O)Nc2c(Cl)cc(Cl)cc21 (stereo not drawn),29.8 µM,39.5,32.9 µM,34.4 µM,33.1 µM,34.1 µM,35 µM,,,,,,,,,,,,,
CCOC(=O)[C@@]1(C)C=C2O[C@@H]3OC4(CCCCC4)O[C@@H]3C2=C2C(O)=CC=C(O)[C@]21C(=O)OC,> 68 µM,> 68,> 68 µM,,> 68 µM,> 68 µM,> 68 µM,,,,,,,,,,,,,
CCC[CH2][Sn-]([CH2]CCC)([CH2]CCC)[O]c1cc(Cl)c(Cl)cc1Cl,0.318 µM,0.167,0.557 µM,0.509 µM,0.732 µM,0.365 µM,,0.163 µM,0.0184 µM,0.00467 µM,0.212 µM,0.16,0.359,0.221 µM,0.196,0.263 µM,0.167 µM,,,
Nn1c(-c2ccccc2)nc2ccc(Br)cc2c1=O,> 100 µM,76.8,> 100 µM,,> 100 µM,> 100 µM,> 100 µM,,,,,,,,,,,,,
Cc1ccc(OCC(=O)N2N=C(c3ccccc3)CC2(O)c2ccccc2)cc1 (stereo not drawn),30 µM,> 100,> 100 µM,,> 100 µM,> 100 µM,> 100 µM,,,,,,,,,,,,,
CC1=C(C(=O)Nc2c(C)cccc2C)C(c2ccc3c(c2)OCO3)C(C(=O)Nc2c(C)cccc2C)=C(C)N1,28.2 µM,56.1,44.2 µM,33.9 µM,32.7 µM,46 µM,32.3 µM,,,,,,,,,,,,,
N#Cc1cn(C2OC(CO)C(O)C2O)c2ncnc(N)c12 (stereo not drawn),> 100 µM,,0.889 µM and 0.178 µM,0.0958 µM and 0.0708 µM,,,,,0.045 µM,,1.33 µM,,,0.0469 µM and 0.045 µM,0.0161,< 0.0193 µM,0.0329 µM,> 100,,
O=C1C(=O)N(C(=O)c2ccc(Cl)c(Cl)c2)c2ccccc21,> 100 µM,> 100,> 100 µM,> 100 µM,> 100 µM,> 100 µM,,,,,,,,,,,,,,
COc1ccc(-c2nc3sc(C)cn3c2/C=C/C(=O)c2cc(OC)c(OC)c(OC)c2)cc1,> 100 µM,7.48,8.57 µM,,> 100 µM,,6.37 µM,5.31 µM,2.49 µM,,,2.61,7.49,3.23 µM,,4.42 µM,,> 100,3.78 µM,2.49 µM
O=C(c1ccccc1)C(C(=O)c1ccccc1)C1(O)C(=O)c2ccccc2C1=O,> 100 µM,46.9,> 100 µM,0.889 µM,> 100 µM,> 100 µM,> 100 µM,,,,,,,,,,,,,
O=C(O)CSc1n[nH]c(-c2ccc(O)cc2)n1,> 100 µM,> 100,> 100 µM,,> 100 µM,> 100 µM,> 100 µM,,,,,,,,,,,,,
O=C1CC(O)C=C1Nc1ccc(Cl)cc1 (stereo not drawn),> 100 µM,95.6,> 100 µM,> 100 µM,> 100 µM,> 100 µM,> 100 µM,,,,,,,,,,,,,
N#CCC(=O)Nc1cccc(C(F)(F)F)c1,> 100 µM,> 100,> 100 µM,> 100 µM,> 100 µM,> 100 µM,> 100 µM,,,,,,,,,,,,,
COc1ccc2cc(C(=O)/C=C/c3cc(OC)c(OC)c(OC)c3)ccc2c1,15.7 µM,20.9,> 50 µM,,> 50 µM,13.8 µM,,7.61 µM,5.34 µM,,,2.67,40.5,2.01 µM,,13 µM,3.91 µM,15.8,1.02 µM,
COC(=O)C1CC2(CC3=C1CCCC3)OCCO2 (stereo not drawn),> 100 µM,> 100,> 100 µM,> 100 µM,> 100 µM,> 100 µM,> 100 µM,,,,,,,,,,,,,
COc1cc([C@H]2c3cc4c(cc3O[C@@]3(O)COC(=O)[C@@H]23)OCO4)cc(OC)c1OC,> 100 µM,> 100,> 100 µM,,> 100 µM,> 100 µM,> 100 µM,,,,> 100 µM,,> 100,,,,,> 100,,
CC1=C(C)C(=O)c2c(cc3ccc4ccccc4n23)C1=O,> 100 µM,> 100,> 100 µM,> 100 µM,> 100 µM,> 100 µM,,,,,,,,,,,,,,
CC(=O)O/C=C(/C=C/OC(C)=O)C(C/C=C(\C)C#CC=C(C)C)OC(C)=O (stereo not drawn),> 100 µM,42.4,> 100 µM,,> 100 µM,,> 100 µM,,,,,,,,,,,,,
Cn1c(=O)nc2n(-c3ccc(Cl)cc3)c3ccc(Cl)cc3nc-2c1=O,54.7 µM,18.9,52.5 µM,7.93 µM,19 µM,21.4 µM,14.5 µM,,,,,,,,,,,,,
CCOC(=O)c1c2c(n3ccc(NC(=O)CCN4CCCC4)cc13)C(=O)c1ncccc1C2=O,1.69 µM,3.32,3.49 µM,3.36 µM,2.67 µM,35.9 µM,33.9 µM,0.214 µM,1.07 µM,,,1.53,3.08,1.38 µM,1.41,1.1 µM,16.1 µM,3.83,1.84 µM,13.8 µM
Cc1cc2c(c(C#N)c1C)NC(=O)CCC2=O,> 100 µM,> 100,> 100 µM,> 100 µM,> 100 µM,> 100 µM,> 100 µM,,,,,,,,,,,,,
C=CCC(NC(=O)OC(C)(C)C)C(=O)NC(CCC(=O)OCc1ccc([N+](=O)[O-])cc1)C(N)=O (stereo not drawn) (Boc-[AllylGly]-Glu(ONb)-NH2; configuration not given here),52 µg/mL,,,,37.9 µg/mL,30.9 µg/mL,31.7 µg/mL,21.9 µg/mL,53.1 µg/mL,19.8 µg/mL,45.5 µg/mL,,,35.8 µg/mL,,16.9 µg/mL,16.3 µg/mL,,93 µg/mL,16.2 µg/mL
